Measured values: US11065266B2, “Method of treating melanoma using an inhibitor of an atypical protein kinase C” (UNIVERSITY OF SOUTH FLORIDA, priority 2016, dated 2021)

Key:
PKC-ζ = molecular target: T1, PKC-ζ (Homo sapiens, UniProt Q05513); conditions: at 10 μM; cited from earlier work
T1 sequence (Q05513 1-592): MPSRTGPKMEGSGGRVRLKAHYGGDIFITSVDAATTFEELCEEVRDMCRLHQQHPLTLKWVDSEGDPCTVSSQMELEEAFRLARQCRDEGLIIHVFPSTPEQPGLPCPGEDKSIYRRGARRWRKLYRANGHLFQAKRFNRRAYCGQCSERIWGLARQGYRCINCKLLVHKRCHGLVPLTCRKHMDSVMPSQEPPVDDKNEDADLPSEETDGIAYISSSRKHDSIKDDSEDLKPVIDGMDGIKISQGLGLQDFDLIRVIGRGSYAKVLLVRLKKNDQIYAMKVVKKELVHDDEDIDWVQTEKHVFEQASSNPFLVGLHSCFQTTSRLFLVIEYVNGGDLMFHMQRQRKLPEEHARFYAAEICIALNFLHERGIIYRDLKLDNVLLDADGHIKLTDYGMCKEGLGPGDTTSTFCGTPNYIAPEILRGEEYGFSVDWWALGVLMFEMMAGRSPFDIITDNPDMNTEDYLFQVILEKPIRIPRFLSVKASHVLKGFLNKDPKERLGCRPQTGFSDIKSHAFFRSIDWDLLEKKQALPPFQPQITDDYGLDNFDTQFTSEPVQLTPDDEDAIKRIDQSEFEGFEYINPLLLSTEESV

[1] = system: PCS-200-013 normal melanocyte; test: Inhibitor dose response curves (cell counts after 3 days); assay type: cell-based, human; conditions: for effect on cell proliferation of normal melanocytes: dose curve
Protocol: (§1) Dose curves (inhibitor concentrations vs cell population after 3 days) for ICA-1, ACPD, DND and ζ-Stat were obtained for all 3 cell lines as follows. PCS-200-013, SK-MEL-2 and MeWo cells (4×10^4) were cultured in 25 cm^2 flasks and treated with either equal volume of sterile water (vehicle control). Cells were treated every 24 h during 3 day incubation period and cells were then lifted using Trypsin-EDTA solution (1.5 mL/flask) and neutralized with the equal volume of media. Subsequently, live cells were counted using the Scepter, an automated cell counter from Millipore (Billerica, Mass.). The cell growth inhibition for all inhibitors for the two malignant cell lines (SK-MEL-2 and MeWo) were quantified by counting the viable cells at 24 hour intervals. Cell counts obtained from Scepter was compared with the counts obtained from the Cellometer Vision from Nexcelom Bioscience (Lawrence, Mass.).
(§2) Dose curves for ACPD and DNDA were obtained to investigate the effect on cell proliferation of normal and malignant cell lines over a wide range of concentrations. […] ACPD decreased proliferation by 20% for 1.5 μM (p≤0.01), 48% for 2.5 μM (p≤0.01) and 51% for 3.5 μM (p≤0.001)(FIG. 5B). DNDA decreased by 17% for 500 nM (p≤0.01), 24% for 1.5 μM(p≤0.01), 52%) for 2.5 µM (p≤0.01) and 57 for 3.5 μM (p≤0.01)(FIG. 5C) in SK-MEL-2 cells. ACPD decreased proliferation by 28% for 500 nM (p≤0.01), 41% for 1.5 μM (p≤0.01), 54% for 2.5 µM (p≤0. 01) and 58% for 3.5 μM (p≤0.01) (FIG. 5D). DNDA decreased proliferation by 37% for 500 nM (p≤0.01), 41% for 1.5 μM (p≤0.01), 46% for 2.5 μM (p≤0.01) and 48% for 3.5 μM (p≤0.01) (FIG. 5E) in the MeWo cells.

SK-MEL-2 cells = test: as above; assay type: cell-based, human
Protocol: as §1, §2

MeWo cells [2] = test: as above; assay type: cell-based, human
Protocol: as §1, §2

MeWo cells [3] = test: WST-1 assay for cell viability and cytotoxicity; assay type: cell-based, human; conditions: treated at IC50, 3 days
Protocol: Approximately 4×10^3 cells (PCS-200-013, SK-MEL-2 and MeWo) were cultured in a 96 well plate. […] This IC50 was obtained based on the cell viability counts in the previous experiments. Additional doses of sterile water or inhibitor were supplied every 24 h during 3 day incubation period. At the end of 3 day treatment, media were removed and fresh media (100 μL) were added with 4-[3-(4-iodophenyl)-2-(4-nitropheny))-2H-5-tetrazolio]-1,3-benzene disulfonate (WST-1) reagent (10 μL) to each well. The absorbance was measured at 450 nm for every 0.5 hour up to 3 hours using the Synergy HT microplate reader from Biotek (Winooski, Vt.).
WST-1 assay was performed to determine the in-vitro cytotoxicity of ACPD and DNDA on normal and malignant cell lines. Measured absorbance at 450 nm is directly proportional to the number of cells present. Cells produce a water soluble formazan with WST-1 as a result of their mitochondrial dehydrogenase activity. WST-1 assay is preferred over 3-(4,S-Dimethyl-2-thiazolyl)-2, 5-diphenyl-2Htetrazolium bromide (MTT) test since MTT needs to add acidic isopropanol to dissolve formazan which gives an additional toxicity to cells.

[4] = system: malignant melanoma cell lines (SK-MEL-2 and MeWo); test: Western blot of ζ-Stat treated samples; assay type: cell-based, human
Protocol: The change of levels of phosphorylated PKC-ι, total PKC-ι (FIG. 18A) and change of levels of phosphorylated PKC-ζ, total PKC-ζ (FIG. 18B) are shown for the ζ-Stat treated (2.5 μM) samples of malignant melanoma cell lines (SK-MEL-2 and MeWo) after the end of 3rd day of treatments. β-actin was used as the internal loading control in each Western blot. Whole cell lysate of 40 μg was separated on 7.5% SDS-PAGE and the Western blots of above proteins were obtained. N=3 experiments were performed in each case.

Row | Structure (SMILES) | inhibition of PKC-ζ (PKC-ζ) | effect on cell proliferation of normal melanocytes [1] | decrease of proliferation (SK-MEL-2 cells; 1.5 μM) | decrease of proliferation (SK-MEL-2 cells; 2.5 μM) | decrease of proliferation (SK-MEL-2 cells; 3.5 μM) | decrease of proliferation (MeWo cells [2]; 500 nM) | decrease of proliferation (MeWo cells [2]; 1.5 μM) | decrease of proliferation (MeWo cells [2]; 2.5 μM) | decrease of proliferation (MeWo cells [2]; 3.5 μM) | WST-1 absorbance at 450 nm, effect (MeWo cells [3]) | inhibition of cell proliferation of normal melanocytes ([1]; 3.5 μM) | decrease of proliferation (SK-MEL-2 cells; 500 nM) | apoptosis of malignant melanoma cells [4] | phosphorylated PKC-ι level ([4]; 2.5 μM, end of 3rd day) | reduction of pPKC-ζ level ([4]; 2.5 μM, end of 3rd day) | reduction of total PKC-ζ level ([4]; 2.5 μM, end of 3rd day) | total PKC-ι protein level ([4]; 2.5 μM, end of 3rd day)
1 | CC(=O)C1=C(O)CCC1=O [ACPD, 2-acetyl-1,3-cyclopentanedione] | about 60% | did not show a significant effect | 20% | 48% | 51% | 28% | 41% | 54% | 58% | did not show a significant effect |  |  |  |  |  |  | 
2 | Nc1c(S(=O)(=O)O)cc2cc(S(=O)(=O)O)ccc2c1N [DNDA, 3,4-diamino-2,7-naphthalenedisulfonic acid] |  | did not show a significant effect | 24% | 52% | 57% | 37% | 41% | 46% | 48% |  | 13.5% | 17% |  |  |  |  | 
3 | O=S(=O)(O)c1cc(O)c2c(S(=O)(=O)O)cc(S(=O)(=O)O)cc2c1 [ζ-Stat, 8-hydroxy-1,3,6-naphthalenetrisulfonic acid] |  |  |  |  |  |  |  |  |  |  |  |  | induces the apoptosis | did not change significantly | 37% | 42% | did not change significantly
